Columns and labels:
Format in all cases: cell-based
5-HT2A receptor [1] = target: T1, 5-HT2A receptor (Homo sapiens, UniProt P28223); assay: Calcium mobilization (Ca++ flux) assay, agonist mode, 5-HT2A; details: for 5-HT2A receptor, Ca++ Flux % activation @30 μM: 30 μM compound, relative to MAX control 0.1 μM serotonin; for EC50: agonist mode, FLIPR calcium mobilization
Procedure: (§1) The Calcium No-Wash^PLUS assay monitors the activation of a GPCR via Gq secondary messenger signaling in a live cell, non-imaging assay format. Calcium mobilization in PathHunter® cell lines or other cell lines stably expressing Gq-coupled GPCRs is monitored using a calcium-sensitive dye that is loaded into cells. GPCR activation by a compound result in the release of calcium from intracellular stores and an increase in dye fluorescence that is measured in real-time. Cell lines expressing the GPCR of interest were expanded from freezer stocks according to standard procedures. Cells were seeded in a total volume of 20 μL into black-walled, clear-bottom, Poly-D-lysine coated 384-well microplates and incubated at 37° C. for the appropriate time prior to testing. Assays were performed in 1×Dye Loading Buffer consisting of 1× Dye, 1× Additive A and 2.5 mM Probenecid in HBSS/20 mM Hepes. Probenicid was prepared fresh. Cells were loaded with dye prior to testing. Media was aspirated from cells and replaced with 20 μL Dye Loading Buffer. Cells were incubated for 30-60 minutes at 37° C. For agonist determination, cells were incubated with sample to induce response. After dye loading, cells were removed from the incubator and 10 μL HBSS/20 mM Hepes was added. 3× vehicle was included in the buffer when performing agonist dose curves to define the EC80 for subsequent antagonist assays. Cells were incubated for 30 minutes at room temperature in the dark to equilibrate plate temperature. Intermediate dilution of sample stocks was performed to generate 4× sample in assay buffer. Compound agonist activity was measured on a FLIPR Tetra (MDS). Calcium mobilization was monitored for 2 minutes and 10 μL 4× sample in HBSS/20 mM Hepes was added to the cells 5 seconds into the assay. Compound activity data was analyzed using CBIS data analysis suite (ChemInnovation, CA). For agonist mode assays, percentage activity is calculated using the following formula:
% Activity=100%×(mean RFU of test sample−mean RFU of vehicle control)/(mean MAX RFU control ligand−mean RFU of vehicle control).
In these studies, the MAX RFU was generated by using 0.1 μM serotonin for the calcium mobilization assay.

5-HT2A receptor [2] = target: T1, 5-HT2A receptor; assay: PathHunter β-Arrestin assay, agonist mode, 5-HT2A
Procedure: The PathHunter® β-Arrestin assay monitors the activation of a GPCR in a homogenous, non-imaging assay format using a technology developed by DiscoverX called Enzyme Fragment Complementation (EFC) with β-galactosidase (β-Gal) as the functional reporter. […] EA is fused to β-Arrestin and PK is fused to the GPCR of interest. When the GPCR is activated and β-Arrestin is recruited to the receptor, ED and EA complementation occurs, restoring β-Gal activity which is measured using chemiluminescent PathHunter® Detection Reagents. PathHunter cell lines (DiscoveRx Eurofins) were expanded from freezer stocks according to standard procedures. Cells were seeded in a total volume of 20 μL into white walled, 384-well microplates and incubated at 37° C. for the appropriate time prior to testing. For agonist determination, cells were incubated with sample to induce response. Intermediate dilution of sample stocks was performed to generate 5× sample in assay buffer. 5 μL of 5× sample was added to cells and incubated at 37° C. or room temperature for 90 to 180 minutes. Vehicle concentration was 1%. β-Arrestin assay signal was generated through a single addition of 12.5 or 15 μL (50% v/v) of PathHunter Detection reagent cocktail, followed by a one-hour incubation at room temperature. Microplates were read following signal generation with a PerkinElmer Envision™ instrument for chemiluminescent signal detection. Compound activity was analyzed using CBIS data analysis suite (ChemInnovation, CA). For agonist mode assays, percentage activity was calculated using the following formula:
% Activity=100%×(mean RLU of test sample−mean RLU of vehicle control)/(mean MAX control ligand−mean RLU of vehicle control).
In these studies, the MAX control ligand response was generated using 1-10 μM serotonin.

5-HT2B receptor = 5-HT2B receptor (Homo sapiens, UniProt P41595); assay: Calcium mobilization (Ca++ flux) assay, agonist mode, 5-HT2B
5-HT2B receptor, sequence (P41595 whole entry): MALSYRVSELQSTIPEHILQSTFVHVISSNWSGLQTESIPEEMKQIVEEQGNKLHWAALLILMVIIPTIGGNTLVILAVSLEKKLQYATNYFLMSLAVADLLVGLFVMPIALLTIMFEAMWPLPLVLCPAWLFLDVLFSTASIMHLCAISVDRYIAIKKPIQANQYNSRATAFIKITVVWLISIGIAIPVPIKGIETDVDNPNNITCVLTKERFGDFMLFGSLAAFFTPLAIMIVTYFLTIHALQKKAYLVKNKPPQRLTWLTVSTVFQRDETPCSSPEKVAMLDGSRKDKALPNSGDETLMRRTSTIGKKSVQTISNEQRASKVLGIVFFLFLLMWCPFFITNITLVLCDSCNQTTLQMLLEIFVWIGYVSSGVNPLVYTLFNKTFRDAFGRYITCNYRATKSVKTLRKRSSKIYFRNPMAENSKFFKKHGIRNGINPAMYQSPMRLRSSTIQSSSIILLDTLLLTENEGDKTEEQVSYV
Procedure: as §1, with “Media was aspirated from cells and replaced with 20 μL Dye Loading Buffer. Cells were incubated for 30-60 minutes at 37° C. For agonist determination, cells were incubated with sample to induce response. After dye loading, cells were removed from the incubator and 10 μL HBSS/20 mM Hepes was added. 3× vehicle was included in the buffer when performing agonist dose curves to define the EC80 for subsequent antagonist assays. Cells were incubated for 30 minutes at room temperature in the dark to equilibrate plate temperature. Intermediate dilution of sample stocks was performed to generate 4× sample in assay buffer.” left out, “formula: […]” for “formula:”

5-HT2C receptor = target: T2, 5-HT2C receptor (Homo sapiens, UniProt P28335); assay: Calcium mobilization (Ca++ flux) assay, agonist mode, 5-HT2C
T2 sequence (P28335 33-458): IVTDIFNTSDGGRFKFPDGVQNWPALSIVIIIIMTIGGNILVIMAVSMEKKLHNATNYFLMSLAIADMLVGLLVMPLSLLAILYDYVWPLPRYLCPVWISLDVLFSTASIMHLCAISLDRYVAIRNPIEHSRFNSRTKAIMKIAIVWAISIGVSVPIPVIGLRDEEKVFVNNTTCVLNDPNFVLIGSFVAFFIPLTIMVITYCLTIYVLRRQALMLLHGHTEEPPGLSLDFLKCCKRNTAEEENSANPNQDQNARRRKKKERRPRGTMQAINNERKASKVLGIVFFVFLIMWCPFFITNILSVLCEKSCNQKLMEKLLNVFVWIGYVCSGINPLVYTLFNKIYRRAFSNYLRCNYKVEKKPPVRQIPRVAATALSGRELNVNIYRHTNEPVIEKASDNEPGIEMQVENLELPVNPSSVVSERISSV
Procedure: as §1, with “Media was aspirated from cells and replaced with 20 μL Dye Loading Buffer. Cells were incubated for 30-60 minutes at 37° C. For agonist determination, cells were incubated with sample to induce response. After dye loading, cells were removed from the incubator and 10 μL HBSS/20 mM Hepes was added. 3× vehicle was included in the buffer when performing agonist dose curves to define the EC80 for subsequent antagonist assays. Cells were incubated for 30 minutes at room temperature in the dark to equilibrate plate temperature. Intermediate dilution of sample stocks was performed to generate 4× sample in assay buffer.” left out, “formula: […]” for “formula:”

T1 sequence (P28223 whole entry): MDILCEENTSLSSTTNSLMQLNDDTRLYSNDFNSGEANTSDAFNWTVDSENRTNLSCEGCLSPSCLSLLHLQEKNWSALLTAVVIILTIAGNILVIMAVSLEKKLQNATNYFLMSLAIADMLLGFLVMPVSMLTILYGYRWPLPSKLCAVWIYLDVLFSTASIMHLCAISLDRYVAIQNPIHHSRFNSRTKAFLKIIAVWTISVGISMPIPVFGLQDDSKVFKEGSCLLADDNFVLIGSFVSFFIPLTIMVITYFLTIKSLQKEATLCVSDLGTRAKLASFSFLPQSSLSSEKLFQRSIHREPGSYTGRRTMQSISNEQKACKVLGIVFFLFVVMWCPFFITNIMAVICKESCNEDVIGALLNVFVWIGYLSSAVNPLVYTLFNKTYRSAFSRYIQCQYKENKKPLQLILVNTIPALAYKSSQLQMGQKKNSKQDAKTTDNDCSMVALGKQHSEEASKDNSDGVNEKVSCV

Row | Compound | 5-HT2A receptor, Ca++ Flux % activation @30 μM (5-HT2A receptor [1]) | EC50 (5-HT2A receptor [2]) [nM] | EC50 (5-HT2B receptor) [nM] | EC50 (5-HT2C receptor) [nM] | EC50 (5-HT2A receptor [1]) [nM]
1 | COc1cc(S(C)(=N)=O)c(OC)cc1CCNCc1cc(C)cc(Cl)c1 (single isomer, unassigned) [Compound 2, (4-(2-((3-chloro-5-methylbenzyl)amino)ethyl)-2,5-dimethoxyphenyl)(imino)(methyl)-λ^6-sulfanone] | NA/57% |  |  |  | 
2 | COc1cc(S(C)(=N)=O)c(OC)cc1CCNCc1cc(C)cc(Cl)c1 (single isomer, unassigned) [Compound 3, (4-(2-((3-chloro-5-methylbenzyl)amino)ethyl)-2,5-dimethoxyphenyl)(imino)(methyl)-λ^6-sulfanone] | 78% | 13.6 | > 1000 | 1490 | 2.4
3 | COc1cc(S(C)(=N)=O)c(OC)cc1CCNCc1cc(C)cc(Cl)c1 (stereo not shown) [Compound 1, (4-(2-((3-chloro-5-methylbenzyl)amino)ethyl)-2,5-dimethoxyphenyl)(imino)(methyl)-λ^6-sulfanone] | 102% | 25 | > 1000 |  | 4.1
4 | COc1cc(S(C)(=N)=O)c(OC)cc1CCNCc1cc(C)cc(Cl)n1 (stereo not shown) [Compound 4, (4-(2-(((6-chloro-4-methylpyridin-2-yl)methyl)amino)ethyl)-2,5-dimethoxyphenyl)(imino)(methyl)-λ^6-sulfanone] | NA/67% |  |  |  | 
5 | COc1cc(S(C)(=N)=O)c(OC)cc1CCNCc1ccccc1OC (stereo not shown) [Compound 5, (2,5-dimethoxy-4-(2-((2-methoxybenzyl)amino)ethyl)phenyl)(imino) (methyl)-λ^6-sulfanone] | 111% | 3.2 |  | 3.6 | 1.7
6 | COc1cc(S(C)(=N)=O)c(OC)cc1CCNCc1ccccc1O (stereo not shown) [Compound 6, (4-(2-((2-hydroxybenzyl)amino)ethyl)-2,5-dimethoxyphenyl)(imino)(methyl)-λ^6-sulfanone] | NA/ 82% |  |  |  | 
